Laboratory results taken from PubChem BioAssay AID330 (DTP/NCI, 2004).
Several values for one entry are separate records, joined by “and”; a condition that tells them apart may be missing. Equal entries are not always repeated. Toxic doses and inconclusive results are not listed.

System: P388 leukemia ip, CD2F1 mice, survival T/C
Assay: NCI In Vivo Anticancer Drug Screen. Data for tumor model P388 Leukemia (intraperitoneal) in CD2F1 (CDF1) mice
Conditions: endpoint: median survival time, higher = longer survival
How it was run: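 Mice carrying the transplanted tumor received test compound or vehicle. Survival was recorded in each group, and the value is the treated-group measurement divided by that of the vehicle-treated control group.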

[1] = dose: 50.0 mg/kg/injection, schedule: Q01DX009 (ip), vehicle: Klucel (hydroxypropylcellulose) (HPC)
[2] = dose: 100.0 mg/kg/injection, schedule: Q01DX009 (ip), vehicle: Klucel (hydroxypropylcellulose) (HPC)
[3] = dose: 200.0 mg/kg/injection, schedule: Q01DX009 (ip), vehicle: Klucel (hydroxypropylcellulose) (HPC)
[4] = dose: 2.5 mg/kg/injection, schedule: Q01DX009 (ip), vehicle: saline with Tween-80
[5] = dose: 50.0 mg/kg/injection, schedule: Q01DX005 (ip), vehicle: Klucel (hydroxypropylcellulose) (HPC)
[6] = dose: 100.0 mg/kg/injection, schedule: Q01DX005 (ip), vehicle: Klucel (hydroxypropylcellulose) (HPC)
[7] = dose: 200.0 mg/kg/injection, schedule: Q01DX005 (ip), vehicle: Klucel (hydroxypropylcellulose) (HPC)

CCOC(=O)CCCCCCNC(=S)N1c2c(nc(N)[nH]c2=O)NCC1CNc1ccc(C(=O)NC(CCC(=O)O)C(=O)O)cc1 (stereo unspecified)
T/C (dose: 50.0 mg/kg/injection, schedule: Q01DX001 (ip), vehicle: sodium bicarbonate): 100 % of control
T/C (dose: 100.0 mg/kg/injection, schedule: Q01DX001 (ip), vehicle: sodium bicarbonate): 100 % of control
T/C (dose: 200.0 mg/kg/injection, schedule: Q01DX001 (ip), vehicle: sodium bicarbonate): 98 % of control

O=C1Nc2ccc(Cl)cc2C1=O
T/C [1]: 99 % of control and 98 % of control
T/C [2]: 105 % of control
T/C [3]: 118 % of control and 89 % of control

CN(C)c1ccc(C(=C2C=CC(=[N+](C)C)C=C2)c2ccc(N(C)C)cc2)cc1 (tested in a mixture with another compound)
T/C (dose: 0.62 mg/kg/injection, schedule: Q01DX009 (ip), vehicle: saline with Tween-80): 122 % of control
T/C [4]: 120 % of control

c1ccc2c(c1)-c1nc-2nc2[nH]c(nc3nc(nc4[nH]c(n1)c1ccccc41)-c1ccccc1-3)c1cc3c4nc5nc(nc6[nH]c(nc7nc(nc([nH]4)c3cc21)-c1ccccc1-7)c1ccccc61)-c1ccccc1-5
T/C (dose: 60.0 mg/kg/injection, schedule: Q01DX005 (ip), vehicle: Klucel (hydroxypropylcellulose) (HPC)): 106 % of control
T/C (dose: 120.0 mg/kg/injection, schedule: Q01DX005 (ip), vehicle: Klucel (hydroxypropylcellulose) (HPC)): 100 % of control
T/C (dose: 240.0 mg/kg/injection, schedule: Q01DX005 (ip), vehicle: Klucel (hydroxypropylcellulose) (HPC)): 97 % of control

C=CCC1(O)CC2NC(C1)[C@@H]1OC(C)(C)O[C@H]21 (stereo partly specified)
T/C [5]: 92 % of control
T/C [6]: 87 % of control
T/C [7]: 94 % of control

Nc1nc2c(c(=O)[nH]1)N(C(=O)CCl)C(CNc1ccc(C(=O)NC(CCC(=O)O)C(=O)O)cc1)CN2 (stereo unspecified)
T/C (dose: 50.0 mg/kg/injection, schedule: Q01DX009 (ip), vehicle: water): 99 % of control
T/C (dose: 100.0 mg/kg/injection, schedule: Q01DX009 (ip), vehicle: water): 103 % of control
T/C (dose: 200.0 mg/kg/injection, schedule: Q01DX009 (ip), vehicle: water): 101 % of control

O=C1C2CC3OC3CC2C(=O)N1CN1C(=O)C2CC3OC3CC2C1=O (stereo unspecified)
T/C [5]: 106 % of control
T/C [6]: 91 % of control
T/C [7]: 89 % of control

COc1ccc2[nH]c3cc4ccncc4cc3c2c1
T/C (dose: 25.0 mg/kg/injection, schedule: Q04DX002 (ip), vehicle: saline with Tween-80): 122 % of control
T/C (dose: 50.0 mg/kg/injection, schedule: Q04DX002 (ip), vehicle: saline with Tween-80): 97 % of control
T/C (dose: 100.0 mg/kg/injection, schedule: Q04DX002 (ip), vehicle: saline with Tween-80): 95 % of control
T/C (dose: 200.0 mg/kg/injection, schedule: Q04DX002 (ip), vehicle: saline with Tween-80): 97 % of control

COc1ccccc1C(c1cc2c(cc1O)OCO2)N1CCOCC1 (stereo unspecified)
T/C (dose: 60.0 mg/kg/injection, schedule: Q01DX005 (ip), vehicle: saline with Tween-80): 117 % of control
T/C (dose: 120.0 mg/kg/injection, schedule: Q01DX005 (ip), vehicle: saline with Tween-80): 115 % of control
T/C (dose: 240.0 mg/kg/injection, schedule: Q01DX005 (ip), vehicle: saline with Tween-80): 122 % of control

O=C(CNN1C(=O)CSC1=Nc1cccc2ccccc12)c1cccc2c1Nc1ccccc1S2
T/C [1]: 102 % of control
T/C [2]: 102 % of control
T/C [3]: 98 % of control

C/C=C/COCC
T/C (dose: 100.0 mg/kg/injection, schedule: Q04DX003 (ip), vehicle: saline with Tween-80): 101 % of control
T/C (dose: 200.0 mg/kg/injection, schedule: Q04DX003 (ip), vehicle: saline with Tween-80): 106 % of control
T/C (dose: 400.0 mg/kg/injection, schedule: Q04DX003 (ip), vehicle: saline with Tween-80): 108 % of control

C=C[Se](=C(C#N)C#N)c1ccccc1 (stereo unspecified)
T/C (dose: 25.0 mg/kg/injection, schedule: Q04DX002 (ip), vehicle: saline): 111 % of control
T/C (dose: 50.0 mg/kg/injection, schedule: Q04DX002 (ip), vehicle: saline): 104 % of control
T/C (dose: 100.0 mg/kg/injection, schedule: Q04DX002 (ip), vehicle: saline): 99 % of control and 101 % of control
T/C (dose: 200.0 mg/kg/injection, schedule: Q04DX002 (ip), vehicle: saline): 110 % of control
T/C (dose: 400.0 mg/kg/injection, schedule: Q04DX002 (ip), vehicle: saline): 118 % of control

C=[CH][Pb]([CH]=C)([CH]=C)[O]C(C)=O
T/C (dose: 1.25 mg/kg/injection, schedule: Q01DX009 (ip), vehicle: saline with Tween-80): 110 % of control and 111 % of control
T/C [4]: 160 % of control
T/C (dose: 5.0 mg/kg/injection, schedule: Q01DX009 (ip), vehicle: saline with Tween-80): 151 % of control and 188 % of control
